Laboratory results taken from PubChem BioAssay (NCI).
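Method: 48-hour compound exposure of cells in 96-well plates, five concentrations, linear interpolation of endpoints. The concentration for full growth arrest is given as TGI.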

How the values were obtained:
Test in all cases: growth of human tumour cells (NCI), 48 h
SNB-19 CNS = test system: SNB-19 CNS
SF-295 CNS = test system: SF-295 CNS
MDA-N = test system: MDA-N
SK-MEL-5 melanoma = test system: SK-MEL-5 melanoma
A549 NSCLC = test system: A549 NSCLC
OVCAR-5 ovarian = test system: OVCAR-5 ovarian
MALME-3M melanoma = test system: MALME-3M melanoma
SK-OV-3 ovarian = test system: SK-OV-3 ovarian
EKVX NSCLC = test system: EKVX NSCLC
HCT-15 colon = test system: HCT-15 colon

Row | Compound | TGI (SNB-19 CNS) [µM] | TGI (SF-295 CNS) [µM] | TGI (MDA-N) [µM] | TGI (SK-MEL-5 melanoma) [µM] | TGI (A549 NSCLC) [µM] | TGI (OVCAR-5 ovarian) [µM] | TGI (MALME-3M melanoma) [µM] | TGI (SK-OV-3 ovarian) [µM] | TGI (EKVX NSCLC) [µM] | TGI (HCT-15 colon) [µM]
1 | Cc1ccc(/C(O)=C/c2nc3ccccc3sc2=O)c(C)c1 | > 100 | > 100 | > 100 | > 100 | > 100 | > 100 | > 100 | > 100 | > 100 | > 100
2 | O=[N+]([O-])c1ccc2sc(C=Nc3cnccn3)cc2c1 | > 100 | > 100 | > 100 | > 100 | > 100 | > 100 | > 100 | > 100 | > 100 | > 100
3 | NCCCN(CCCN(C(=O)Nc1ccccc1)c1ccccc1)C(=O)Nc1ccccc1 | > 100 | 58.3 | > 100 | 40.7 | > 100 | > 100 | 38.9 | > 100 | > 100 | > 100
4 | Cc1ccc(OCC2OC(n3cnc4nc(N)nc(Cl)c43)CC2Oc2ccc(C)cc2)cc1 (stereo not given) | 30.4 | 84.1 | 39.5 | 41.3 | 58.3 | 39.7 | 69.2 | > 100 | 69.4 | 59.3
5 | OC1(c2ccccc2)CCN(Cc2c[nH]c3ccccc23)CC1 | > 100 | > 100 | > 100 | > 100 | > 100 | > 100 | 52.4 | > 100 | > 100 | > 100
6 | COc1ccc(CC(N)c2ccc(OC)cc2)cc1 (stereo not given) | > 100 | > 100 | > 100 | > 100 | > 100 | > 100 | > 100 | > 100 | > 100 | > 100
7 | CC1(C)N/C(=C\C=O)C(C)(C)N1O | > 100 | > 100 | > 100 | > 100 | > 100 | > 100 | > 100 | > 100 | > 100 | > 100
8 | CSCCC(N)C(=O)NCCNc1ccc(NCCNC(=O)C(N)CCSC)c2c1C(=O)c1ccccc1C2=O (stereo not given) | 5.81 | 10.7 | 4.23 | 13.2 | 3.66 | 5.61 | 6.6 | 10.3 | 9.65 | 16.3
9 | O=C1C(Cl)=C(OCCCl)C(=O)c2c(O)ccc(O)c21 | 32.7 | 33.3 | 7.37 | 6.91 | 37.9 | 31.6 | 7.53 | 32.1 | 34.2 | 7.01
10 | CC1(C)CC(O)C(C)(C)[C@@H](O)C1 (stereo not given in full) | > 100 | > 100 | > 100 | > 100 | > 100 | > 100 | > 100 | > 100 | > 100 | > 100
11 | COc1cccc(CCN2CCN(CCCc3ccccc3)CC2)c1 | > 100 | > 100 | > 100 | 40.6 | > 100 | > 100 | > 100 | > 100 | > 100 | > 100
12 | OCC(O)C(O)C(O)C(O)c1nc2ccc(Cl)cc2[nH]1 (stereo not given) | > 100 | > 100 | > 100 | > 100 | > 100 | > 100 | > 100 | > 100 | > 100 | > 100
13 | COC(=O)C1(Cc2ccc3c(c2)CCC3)Cc2ccccc2C1O (stereo not given) | 35.6 | 35.2 | 13.5 | 29.8 | 49.2 | 80 | 37.6 | 44.2 | 69.4 | 50.7
14 | COC(=O)C1CCC(=S)N1C(=O)c1ccccc1 (stereo not given) | > 100 | > 100 | > 100 | > 100 | > 100 | > 100 | > 100 | > 100 | > 100 | > 100
15 | CCCCC(=O)c1c(O)nc2sccn2c1=O | > 10 | > 10 | > 10 | > 10 | > 10 | > 10 | > 10 | > 10 | > 10 | > 10
16 | COc1ccc(N2C(=O)CC(=O)N(C(=O)COc3ccc(OCC(=O)N4C(=O)CC(=O)N(c5ccc(OC)cc5)C4=S)cc3)C2=S)cc1 | > 100 | > 100 | > 100 | > 100 | > 100 | > 100 | > 100 | > 100 | > 100 | > 100
17 | CC(C)CNc1nc2ncnc(N)c2[nH]1 | > 100 | > 100 | > 100 | > 100 | > 100 | > 100 | > 100 | > 100 | > 100 | > 100
18 | O=S(=O)(c1ccc(NC2=NC(c3ccc(O)cc3)(c3ccccc3O)c3ccccc32)cc1)c1ccc(NC2=NC(c3ccc(O)cc3)(c3ccccc3O)c3ccccc32)cc1 (stereo not given) | > 100 | > 53.2 | > 23.1 | > 100 | > 100 | > 73.6 | 13.1 | > 73.3 | > 52.6 | > 81
19 | C[n+]1cccc2c(=O)c3ccccc3oc21 | > 100 | > 100 | > 100 | > 100 | > 100 | > 100 | > 100 | > 100 | > 100 | > 100
20 | CCOC(=O)c1nc2ccc(C(F)(F)F)cc2nc1Oc1cc(OC)c(OC)c(OC)c1 | > 100 | > 100 | > 100 | 96.4 | > 100 | > 100 | > 100 | > 100 | > 100 | > 100
21 | CCCCCCCC/C=C\CCCCCCC/C=C1\C[C@](/C=C/C(=O)OC)(CO)OC1=O | 16 | 14.1 | 2.27 | 16.8 | 17.8 | 19.5 | 2.86 | 19.1 | 24.7 | 8.22
22 | CSCSSC | > 100 | > 100 | > 100 | > 100 | > 100 | > 100 | > 100 | > 100 | > 100 | > 100
23 | CN(C)c1ccc(/C(F)=C(F)/C(F)=C(F)/C(F)=C(\F)c2ccc(Br)cc2)cc1 | > 78.5 | > 52.1 | 7.54 | > 100 | > 100 | > 100 | > 71.8 | > 100 | > 100 | > 100
24 | C=C(C(N)=O)c1ccc([N+](=O)[O-])o1 | > 100 | > 100 | 13.5 | 16.4 | 40.3 | 35.2 | 5.51 | 87.9 | 42 | 27.9
25 | CC(=O)NCCC1CN(C(=O)/C=C/I)c2ccccc21 (stereo not given) | 27.9 | 28.9 | 9.26 | 20.3 | 33.1 | 29.3 | 26.3 | 27.8 | 33.3 | 9.66
26 | Cc1ccc([S@](=O)c2occc2C=O)cc1 | 18 | 32.4 | 15.1 | 23.1 | 46.5 | 34.7 | 8.45 | 26.5 | 43.6 | 9.84
27 | CCN(CC)N1C(=O)[N+](CC)(CC)N=C1[O-] | > 100 | > 100 | > 100 | > 100 | > 100 | > 100 | > 100 | > 100 | > 100 | > 100
28 | CC1C(=O)N(c2ccccc2)NC12CCCc1ccccc12 (stereo not given) | > 100 | > 100 | > 100 | > 100 | > 100 | > 100 | > 100 | > 100 | > 100 | > 100
29 | OCCO/N=C1\C(c2c(O)[nH]c3ccccc23)=Nc2ccccc21 | > 100 | > 100 | > 100 | > 100 | > 100 | > 100 | > 100 | > 100 | > 100 | > 100
30 | CCCC(=O)NC(Nc1ccc(S(=O)(=O)Nc2cc(C)on2)cc1)(C(=O)OCC)C(F)(F)F (stereo not given) | > 100 | > 100 | > 100 | > 100 | > 100 | > 100 | > 100 | > 100 | > 100 | > 100
